Experimental findings from patent US20080182898A1, “Treatment of metabolic syndrome with norfluoxetine” (AMPLA Pharmaceuticals Inc., priority 2007, published 2008) are described below.

In the assay the target is CB1 receptor (Homo sapiens, UniProt P21554). The assay can be described thus: functional activity versus the CB1 receptor. The following applies: qualitative statement, no method or numbers given.
Sequence of CB1 receptor (P21554 whole entry): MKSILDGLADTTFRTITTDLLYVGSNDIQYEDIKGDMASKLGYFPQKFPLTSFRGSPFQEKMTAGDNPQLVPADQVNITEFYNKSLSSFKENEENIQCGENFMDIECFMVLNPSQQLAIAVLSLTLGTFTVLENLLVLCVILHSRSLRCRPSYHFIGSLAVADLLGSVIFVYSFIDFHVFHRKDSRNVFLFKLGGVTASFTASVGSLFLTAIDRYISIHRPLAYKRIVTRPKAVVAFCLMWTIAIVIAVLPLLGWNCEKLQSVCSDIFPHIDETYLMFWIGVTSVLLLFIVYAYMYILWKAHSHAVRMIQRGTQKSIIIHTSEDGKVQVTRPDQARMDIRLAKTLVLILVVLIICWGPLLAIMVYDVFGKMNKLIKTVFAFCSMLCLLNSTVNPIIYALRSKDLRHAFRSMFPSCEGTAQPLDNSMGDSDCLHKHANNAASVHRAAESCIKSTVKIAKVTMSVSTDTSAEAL
Take `NCCC(Oc1ccc(C(F)(F)F)cc1)c1ccccc1` (racemic) [racemate of norfluoxetine, 3-(4-trifluoromethylphenoxy)3-phenylpropylamine]: the “functional activity versus the CB1 receptor (mode of action)” value is reported as “antagonist”.

Take `CNCC[C@@H](Oc1ccc(C(F)(F)F)cc1)c1ccccc1` [(R)-fluoxetine]: the “functional activity versus the CB1 receptor (mode of action)” value is reported as “antagonist”.

On to `CNCC[C@H](Oc1ccc(C(F)(F)F)cc1)c1ccccc1` [(S)-Fluoxetine], for which the “functional activity versus the CB1 receptor (mode of action)” value was “inverse agonist”.
